Measurements as given in patent publication US20250206718A1, “NITROGEN-CONTAINING HETEROCYCLIC DERIVATIVE INHIBITOR, PREPARATION METHOD THEREFOR AND USE THEREOF” (SHANGHAI HANSOH BIOMEDICAL CO., LTD., priority 2022, published 2025).

Each compound was assayed against Ba/F3 EGFR Del19/C797S cells (Homo sapiens, UniProt P00533, C797S, cells depend on it, form not given) (assay: Cell proliferation inhibition (Cell Titer-Glo), Ba/F3 EGFR Del19/C797S). Details: 72 hours, CellTiter-Glo, read-out: Ba/F3 EGFR Del19/C797S IC50.
Format: cell-based, mouse
Text: Experimental objective: The objective of this test example is to test the inhibitory activity of compounds on the proliferation of different EGFR C797S drug-resistant mutant cell lines Ba/F3 EGFR Del19/T790M/C797S, Ba/F3 EGFR L858R/T790M/C797S, and Ba/F3 EGFR Del19/C797S.
• Ba/F3 EGFR Del19/T790M/C797S cells were purchased from KYinno Biotechnology Co., Ltd.; • Ba/F3 EGFR Del19/C797S cells were purchased from CoBioer Biosciences Co., Ltd.; • Ba/F3 EGFR L858R/T790M/C797S cells were purchased from CoBioer Biosciences Co., Ltd.; • Cell Titer-Glo was purchased from Promega, with a catalog number of G7573; • RPMI 1640 was purchased from Gibco, with a catalog number of 22400089; • FBS was purchased from Gibco, with a catalog number of 10091148; • cell culture plates were purchased from Corning, with a catalog number of 3610.
The inhibitory activity of the compound on the proliferation of different EGFR C797S drug-resistant mutant cell lines was detected using the Cell Titer-Glo method. The different cell lines were cultured in RPMI 1640 complete culture medium containing 10% FBS under conditions of 37° C. and 5% CO2, the cells were collected by centrifugation when growing to a certain density, and adjusted to appropriate cell density after counting, the cells were spread on a white 96-well plate at 90 μL/well, and cultured in a 37° C., 5% CO2 incubator overnight, prepared compound solutions of different concentrations were added at 10 μL/well, corresponding solvent controls were set, and all wells were cultured in a 37° C., 5% CO2 incubator for 72 hours, 50 μL of CellTiter-Glo solution was added to each well, shook and mixed evenly, and incubated in the dark for 10 minutes, and a BioTek Synergy H1 microplate reader was used for reading.
The luminescence signal value was used to calculate the inhibition rate. Graphpad Prism software was used to fit the concentration and inhibition rate to a nonlinear regression curve, so as to obtain the IC50 value, as shown in the Table below for details.

Chain of Ba/F3 EGFR Del19/C797S cells (P00533 with tags, fused parts or gaps DEL746-750/C797S, form open): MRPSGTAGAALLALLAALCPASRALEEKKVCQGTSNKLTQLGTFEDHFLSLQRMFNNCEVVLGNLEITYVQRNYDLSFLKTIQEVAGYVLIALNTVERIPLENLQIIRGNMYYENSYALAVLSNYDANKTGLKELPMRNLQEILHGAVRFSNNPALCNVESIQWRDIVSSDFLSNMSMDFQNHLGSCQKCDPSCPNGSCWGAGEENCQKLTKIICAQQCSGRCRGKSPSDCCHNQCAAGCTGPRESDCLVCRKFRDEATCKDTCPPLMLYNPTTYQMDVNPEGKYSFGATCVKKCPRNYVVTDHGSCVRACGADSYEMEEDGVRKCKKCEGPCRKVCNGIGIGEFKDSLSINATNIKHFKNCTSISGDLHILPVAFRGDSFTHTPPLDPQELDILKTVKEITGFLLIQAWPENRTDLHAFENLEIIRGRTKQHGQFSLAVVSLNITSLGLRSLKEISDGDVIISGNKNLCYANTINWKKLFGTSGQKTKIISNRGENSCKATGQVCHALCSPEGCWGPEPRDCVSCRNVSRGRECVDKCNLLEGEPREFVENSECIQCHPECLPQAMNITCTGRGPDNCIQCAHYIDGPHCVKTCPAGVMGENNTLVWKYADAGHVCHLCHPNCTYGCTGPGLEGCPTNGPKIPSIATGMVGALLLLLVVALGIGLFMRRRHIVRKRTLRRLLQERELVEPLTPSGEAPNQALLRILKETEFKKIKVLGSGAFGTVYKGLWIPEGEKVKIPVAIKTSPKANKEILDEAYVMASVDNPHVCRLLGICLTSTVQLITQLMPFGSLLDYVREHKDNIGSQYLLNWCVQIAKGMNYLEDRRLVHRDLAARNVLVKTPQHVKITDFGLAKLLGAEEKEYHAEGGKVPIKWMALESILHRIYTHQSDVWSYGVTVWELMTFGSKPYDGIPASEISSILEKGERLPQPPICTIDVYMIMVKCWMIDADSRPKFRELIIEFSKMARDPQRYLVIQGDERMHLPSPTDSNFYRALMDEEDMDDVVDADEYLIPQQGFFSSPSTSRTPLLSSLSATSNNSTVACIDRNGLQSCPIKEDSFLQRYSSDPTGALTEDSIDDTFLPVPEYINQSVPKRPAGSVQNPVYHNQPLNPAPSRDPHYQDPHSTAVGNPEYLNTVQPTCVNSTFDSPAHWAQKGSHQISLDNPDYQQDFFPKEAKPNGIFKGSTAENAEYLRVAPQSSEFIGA

Point of comparison: `CC(C)c1ccc(N2CC(N=S(C)(C)=O)C2)c2cnc(Nc3ccnc(-c4cn(C)nc4Cl)n3)cc12` [Example 102, ((1-(3-((2-(3-chloro-1-methyl-1H-pyrazol-4-yl)pyrimidin-4-yl)amino)-5-isopropylisoquinolin-8-yl)azetidin-3-yl)imino)dimethyl-16-sulfanone], GI50 73 nM. Against it:
- CC(C)c1ccc(N2C[C@H](CS(C)(=O)=O)[C@H]2C)c2cnc(Nc3ccnc(-c4cn(C5CC5)nc4F)n3)cc12 [Example 9, N-(2-(1-cyclopropyl-3-fluoro-1H-pyrazol-4-yl)pyrimidin-4-yl)-5-isopropyl-8-((2R,3S)-2-methyl-3-((methylsulfonyl)methyl)azetidin-1-yl)isoquinolin-3-amine] — within 1.5-fold, 57 nM
- CC(C)c1ncc(N2C[C@H](N(C)S(C)(=O)=O)[C@H]2C)c2cnc(Nc3ccnc(-c4cn(C)nc4Cl)n3)cc12 [Example 59, N-((2R,3S)-1-(7-((2-(3-chloro-1-methyl-1H-pyrazol-4-yl)pyrimidin-4-yl)amino)-1-isopropyl-2,6-diazanaphthalen-4-yl)-2-methylazetidin-3-yl)-N-methyl methanesulfonamide] — 15-fold lower, 5 nM
- Cc1nn(C)cc1-c1nccc(Nc2cc3c(C(C)C)ncc(N4CC(N(C)S(C)(=O)=O)C4)c3cn2)n1 [Example 60, N-(1-(7-((2-(1,3-dimethyl-1H-pyrazol-4-yl)pyrimidin-4-yl)amino)-1-isopropyl-2,6-diazanaphthalen-4-yl)azetidin-3-yl)-N-methyl methanesulfonamide] — 13-fold lower, 5.6 nM
- Cc1nn(C)cc1-c1nccc(Nc2cc3c(C(C)C)ncc(N4C[C@H](N(C)S(C)(=O)=O)[C@H]4C)c3cn2)n1 [Example 61, N-((2R,3S)-1-(7-((2-(1,3-dimethyl-1H-pyrazol-4-yl)pyrimidin-4-yl)amino)-1-isopropyl-2,6-diazanaphthalen-4-yl)-2-methylazetidin-3-yl)-N-methyl methanesulfonamide] — 12-fold lower, 6 nM
- Cc1nn(C)cc1-c1nccc(Nc2cc3c(C(C)C)ccc(N4CC(N(C)S(C)(=O)=O)C4)c3cn2)n1 [Example 71, N-(1-(3-((2-(1,3-dimethyl-1H-pyrazol-4-yl)pyrimidin-4-yl)amino)-5-isopropylisoquinolin-8-yl)azetidin-3-yl)-N-methyl methanesulfonamide] — 4.3-fold lower, 17 nM
- CC(C)c1ccc(N2C[C@H](N3CCOC3=O)[C@H]2C)c2cnc(Nc3ccnc(-c4cn(C)nc4Cl)n3)cc12 [Example 109, 3-((2R,3S)-1-(3-((2-(3-chloro-1-methyl-1H-pyrazol-4-yl)pyrimidin-4-yl)amino)-5-isopropylisoquinolin-8-yl)-2-methylazetidin-3-yl)oxazolidin-2-one] — 5.2-fold lower, 14 nM
- CC(C)c1ccc(N2C[C@H](CS(C)(=O)=O)[C@H]2C)c2cnc(Nc3ccnc(-c4cn(C(C)(C)C#N)nc4Cl)n3)cc12 [Example 112, 2-(3-chloro-4-(4-((5-isopropyl-8-((2R,3S)-2-methyl-3-((methanesulfonyl)methyl)azetidin-1-yl)isoquinolin-3-yl)amino)pyrimidin-2-yl)-1H-pyrazol-1-yl)-2-methylpropanenitrile] — within 1.5-fold, 52 nM
- CC(C)c1ccc(N2C[C@H](CS(C)(=O)=O)[C@H]2C)c2cnc(Nc3ccnc(-c4cn(CC(O)C(F)(F)F)nc4Cl)n3)cc12 (stereo partly drawn) [Example 113, 3-(3-chloro-4-(4-((5-isopropyl-8-((2R,3S)-2-methyl-3-((methanesulfonyl)methyl)azetidin-1-yl)isoquinolin-3-yl)amino)pyrimidin-2-yl)-1H-pyrazol-1-yl)-1,1,1-trifluoropropan-2-ol] — within 1.5-fold, 60 nM
- CC(=O)Cn1cc(-c2nccc(Nc3cc4c(C(C)C)ccc(N5C[C@H](CS(C)(=O)=O)[C@H]5C)c4cn3)n2)c(Cl)n1 [Example 114, 1-(3-chloro-4-(4-((5-isopropyl-8-((2R,3S)-2-methyl-3-((methanesulfonyl)methyl)azetidin-1-yl)isoquinolin-3-yl)amino)pyrimidin-2-yl)-1H-pyrazol-1-yl)propan-2-one] — 1.9-fold lower, 39 nM
- CC(C)c1ccc(N2C[C@H](CS(C)(=O)=O)[C@H]2C)c2cnc(Nc3ccnc(-c4cn(C(C)C#N)nc4Cl)n3)cc12 (stereo partly drawn) [Example 115, 2-(3-chloro-4-(4-((5-isopropyl-8-((2R,3S)-2-methyl-3-((methanesulfonyl)methyl)azetidin-1-yl)isoquinolin-3-yl)amino)pyrimidin-2-yl)-1H-pyrazol-1-yl)propanenitrile] — the same, 73 nM
- CC(C)c1c(F)cc(N2CC(N(C)S(C)(=O)=O)C2)c2cnc(Nc3ccnc(-c4cn(C)nc4Cl)n3)cc12 [Example 124, N-(1-(3-((2-(3-chloro-1-methyl-1H-pyrazol-4-yl)pyrimidin-4-yl)amino)-6-fluoro-5-isopropylisoquinolin-8-yl)azetidin-3-yl)-N-methyl methanesulfonamide] — 5.2-fold lower, 14 nM
- Cc1nn(C)cc1-c1nccc(Nc2cc3c(C(C)C)c(F)cc(N4CC(N(C)S(C)(=O)=O)C4)c3cn2)n1 [Example 129, N-(1-(3-((2-(1,3-dimethyl-1H-pyrazol-4-yl)pyrimidin-4-yl)amino)-6-fluoro-5-isopropylisoquinolin-8-yl)azetidin-3-yl)-N-methyl methanesulfonamide] — 3.3-fold lower, 22 nM
- CC(C)c1ncc(N2CC(N(C)S(C)(=O)=O)C2)c2cnc(Nc3ccnc(-c4cn(C)nc4Cl)n3)cc12 [Example 131, N-(1-(7-((2-(3-chloro-1-methyl-1H-pyrazol-4-yl)pyrimidin-4-yl)amino)-1-isopropyl-2,6-diazanaphthalen-4-yl)azetidin-3-yl)-N-methyl methanesulfonamide] — 9.9-fold lower, 7.4 nM
- CC(C)c1ncc(N2C[C@H](CS(C)(=O)=O)[C@H]2C)c2cnc(Nc3ccnc(-c4cn(C)nc4Cl)n3)cc12 [Example 133, N-(2-(3-chloro-1-methyl-1H-pyrazol-4-yl)pyrimidin-4-yl)-5-isopropyl-8-((2R,3S)-2-methyl-3-((methanesulfonyl)methyl)azetidin-1-yl)-2,6-diazanaphthalen-3-amine] — 2.7-fold lower, 27 nM
- CC(C)c1ccc(N2C[C@H](CS(C)(=O)=O)[C@H]2C)c2cnc(Nc3ccnc(-c4cn(C5CC6(COC6)C5)nc4Cl)n3)cc12 [Example 141, N-(2-(3-chloro-1-(2-oxaspiro[3.3]heptan-6-yl)-1H-pyrazol-4-yl)pyrimidin-4-yl)-5-isopropyl-8-((2R,3S)-2-methyl-3-((methanesulfonyl)methyl)azetidin-1-yl)isoquinolin-3-amine] — within 1.5-fold, 64 nM
- CC(C)c1ccc(N2C[C@H](CS(C)(=O)=O)[C@H]2C)c2cnc(Nc3ccnc(-c4cn([C@H]5CCOC5)nc4Cl)n3)cc12 [Example 142, N-(2-(3-chloro-1-((S)-tetrahydrofuran-3-yl)-1H-pyrazol-4-yl)pyrimidin-4-yl)-5-isopropyl-8-((2R,3S)-2-methyl-3-((methanesulfonyl)methyl)azetidin-1-yl)isoquinolin-3-amine] — 1.8-fold lower, 41 nM
- CC(C)c1ccc(N2C[C@H](CS(C)(=O)=O)[C@H]2C)c2cnc(Nc3ccnc(-c4cn([C@@H]5CCOC5)nc4Cl)n3)cc12 [Example 143, N-(2-(3-chloro-1-((R)-tetrahydrofuran-3-yl)-1H-pyrazol-4-yl)pyrimidin-4-yl)-5-isopropyl-8-((2R,3S)-2-methyl-3-((methanesulfonyl)methyl)azetidin-1-yl)isoquinolin-3-amine] — 2.4-fold lower, 30 nM
- CC(C)c1ccc(N2C[C@H](CS(C)(=O)=O)[C@H]2C)c2cnc(Nc3ccnc(-c4cn(C[C@H]5CCCO5)nc4Cl)n3)cc12 [Example 144, N-(2-(3-chloro-1-(((R)-tetrahydrofuran-2-yl)methyl)-1H-pyrazol-4-yl)pyrimidin-4-yl)-5-isopropyl-8-((2R,3S)-2-methyl-3-((methanesulfonyl)methyl)azetidin-1-yl)isoquinolin-3-amine] — 2.8-fold lower, 26 nM
- CC(C)c1ccc(N2C[C@H](CS(C)(=O)=O)[C@H]2C)c2cnc(Nc3ccnc(-c4cn(C[C@@H]5CCCO5)nc4Cl)n3)cc12 [Example 145, N-(2-(3-chloro-1-(((S)-tetrahydrofuran-2-yl)methyl)-1H-pyrazol-4-yl)pyrimidin-4-yl)-5-isopropyl-8-((2R,3S)-2-methyl-3-((methanesulfonyl)methyl)azetidin-1-yl)isoquinolin-3-amine] — 1.6-fold lower, 45 nM
- CC(C)c1ccc(N2C[C@H](CS(C)(=O)=O)[C@H]2C)c2cnc(Nc3ccnc(-c4cn(C[C@H]5CCN5C)nc4Cl)n3)cc12 [Example 146, N-(2-(3-chloro-1-(((R)-1-methylazetidin-2-yl)methyl)-1H-pyrazol-4-yl)pyrimidin-4-yl)-5-isopropyl-8-((2R,3S)-2-methyl-3-((methanesulfonyl)methyl)azetidin-1-yl)isoquinolin-3-amine] — within 1.5-fold, 80 nM
